{"source": "patent US5686448A", "about": "(priority 1995, dated 1997)", "key": {"[1]": {"test_system": "Vero cells", "conditions": "25 mg/ml, 48 hours", "protocol": "To determine the toxicity level of the drug, all three cell lines--RK-13, Vero cells, and WISH cells--were used. In the toxicity experiments, the effect of the drug on the uninfected cell for a range of periods of time was determined. Accordingly, cultures were incubated with and without the drug. The time of exposure was from one to seven hours. A comparison was then made between the drug tested cultures and the control cultures. After each period of incubation, the cells were washed and fresh media was added to the cells. The cell viability was then determined by dividing these cultures and having them grow into new cell cultures.\nAt the end of the incubation period, the cultures were washed twice with sterile PBS (Dulbecco). Fresh medium was added to each of the cultures. The cultures were then incubated for an additional 24 hours.\n(§1) Healthy confluent monolayer cell cultures were overlaid with 1 ml of the drug and incubated for 48 hours at 37° C. and then stained. Cell cultures with maintenance media were used as controls."}, "[2]": {"test_system": "Flow 1000 cells (foreskin cells)", "conditions": "25 mg/ml, 48 hours", "protocol": "as §1"}, "[3]": {"test_system": "HSV-2 (333 strain)", "test": "HMB plaque inhibition in infected Vero cells (Exp. 1M-1P)", "format": "cell-based", "protocol": "In this experiment, 25 mg/ml HMB was tested on Vero cells infected with HSV-2. The virus control cultures, without HMB, had 705 plaque.\nThe number of plaque on the virus control was about 10 to 12 plaque.\nIn this experiment, 25 mg/ml, 20 mg/ml, and 15 mg/ml of HMB concentrations were tested on Vero cells infected with HSV-2. […] The experimental flasks had as many, or more, plaque as the control, with an average of 154 plaque for the control and 169 plaque for the HMB-treated flasks."}, "[4]": {"test_system": "RK-13 cells", "conditions": "25 mg/ml, 48 hours"}}, "data": [{"smiles": "C[N+](C)(C)CCCCCC[N+](C)(C)C", "note": "[HMB, hexamethonium bromide]", "values": [{"measurement": "toxicity", "setting": "[1]", "value": "no toxicity"}, {"measurement": "toxicity", "setting": "[2]", "value": "no toxicity"}, {"measurement": "cell layer appearance", "setting": "[3]; Exp. 1M, 25 mg/ml", "value": "thin cell layer"}, {"measurement": "plaque inhibition", "setting": "[3]; Exp. 1N, 20 mg/ml, control about 10 to 12", "value": "complete inhibition of plaque"}, {"measurement": "effect on plaque", "setting": "[3]; Exp. 1O, 15 mg/ml", "value": "did not have any effect"}, {"measurement": "average plaque number", "setting": "[3]; Exp. 1O, 15 mg/ml, control 154", "value": 169, "unit": "plaque"}, {"measurement": "plaque formation", "setting": "[3]; Exp. 1O, 20 mg/ml", "value": "no plaque"}, {"measurement": "toxicity to monolayer", "setting": "[3]; Exp. 1O, 25 mg/ml", "value": "toxic to the monolayer"}, {"measurement": "plaque formation", "setting": "[3]; Exp. 1O, 25 mg/ml, most likely due to toxicity", "value": "no plaque"}, {"measurement": "inhibition of in vitro replication", "setting": "[3]; HMB, Example No. 1 summary", "value": "inhibit the in vitro replication of HSV-1 and HSV-2"}, {"measurement": "toxicity", "setting": "[4]", "value": "slight toxicity"}]}]}
